Reference: US20260297087A1, “Pyridoimidazolone Compounds, Preparation Thereof and Therapeutic Uses Thereof” (Sanofi, priority 2023, published 2026)
Like-named read-outs stand apart in the source and are kept apart here.

What was measured:
ERK5 = target: T1, ERK5 (Homo sapiens, UniProt Q13164); assay: Inhibition of Cellular ERK5 Activity (cell-based assay, MEF2 luciferase reporter in SN12C cells); settings: renal cancer cell line SN12C, doxycycline-induced MEKSDD, mean where repeated
T1 construct: MEF2-luciferase reporter
T1 sequence (Q13164 whole entry): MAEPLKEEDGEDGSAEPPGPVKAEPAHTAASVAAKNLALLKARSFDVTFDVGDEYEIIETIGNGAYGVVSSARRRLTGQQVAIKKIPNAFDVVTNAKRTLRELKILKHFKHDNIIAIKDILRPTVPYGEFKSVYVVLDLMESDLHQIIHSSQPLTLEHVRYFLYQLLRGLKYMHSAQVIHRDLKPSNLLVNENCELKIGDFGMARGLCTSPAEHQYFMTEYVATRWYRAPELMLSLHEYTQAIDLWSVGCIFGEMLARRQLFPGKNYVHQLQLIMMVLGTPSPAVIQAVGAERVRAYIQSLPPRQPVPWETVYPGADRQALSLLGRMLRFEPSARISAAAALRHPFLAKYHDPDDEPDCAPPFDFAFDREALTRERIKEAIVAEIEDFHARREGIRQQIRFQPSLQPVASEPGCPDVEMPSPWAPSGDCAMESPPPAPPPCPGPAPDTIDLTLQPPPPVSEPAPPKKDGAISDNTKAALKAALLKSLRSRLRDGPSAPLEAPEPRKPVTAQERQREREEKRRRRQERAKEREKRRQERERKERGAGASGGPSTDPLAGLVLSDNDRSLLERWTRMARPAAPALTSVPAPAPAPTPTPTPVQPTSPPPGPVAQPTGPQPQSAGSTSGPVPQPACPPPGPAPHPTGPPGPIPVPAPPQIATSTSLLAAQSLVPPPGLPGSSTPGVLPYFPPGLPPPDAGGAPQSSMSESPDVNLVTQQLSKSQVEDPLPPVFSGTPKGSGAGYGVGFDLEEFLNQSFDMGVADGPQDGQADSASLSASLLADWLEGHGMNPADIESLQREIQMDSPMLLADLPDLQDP
Description: (§1) Two assays were performed to assess the ERK5 inhibitory activity of compounds of the Examples, a cell-based assay and a cell-free biochemical assay. Where repeat measurements were taken, the value reported is a mean average.
The renal cancer cell line SN12C was transduced by a lentivirus pGreenFire1 MEF2 EF1 Neo (ref TR030VA-N) from SBI using standard infection protocol. pGreenFire1 MEF2 EF1 Neo allows the expression of luciferase gene under the control of minimal promoter with MEF2 transcriptional response elements. Cells harboring the reporter construct were selected by geneticin treatment. The selected cells were then transposed by a piggyback based plasmid pCM4007 allowing the expression of constitutively activated MEKSDD under control of TREG3 promoter, a doxycycline regulated promoter. Transposed cells were selected by puromycin treatment. Upon doxycycline treatment (1p g/ml) MEKSDD was expressed. MEKSDD activates ERK5 that phosphorylates MEF2C protein. Activated MEF2C protein can bind to its transcriptional response elements. Then the luciferase is expressed. In a 96-well plate (96F nuncleon refl37101 thermofisher), 50,000 cells were inoculated in 142.5 μl of RPMI medium containing 10% fetal calf serum, 1% glutamine, and 1 μg/ml doxycycline. After 24 hours, compounds were added in 7.5 μl culture medium (with 2% DMSO to give a final concentration of 0.1%) in order to obtain the desired concentration (0.3-1000 nM). The luciferase activity was measured using the Kit Bright Glo Luminescent Cell Assay Cat E2610 (Promega) according to the manufacturer's protocol. Luminescence was determined using 0.2 second reading/well using a Tecan SPARK. IC50 values were calculated using XLFIT5 for Microsoft Excel using method 205. The IC50 values represent the concentration of compound which inhibits the measurable luminescence signal by 50% as compared to DMSO-treated control cells.

[1] = target: T2, ERK5 (activated catalytic domain) (Homo sapiens, UniProt Q13164); assay: Cell-Free Assay of ERK5 Inhibition (Time-Resolved FRET, 4EBP1 peptide phosphorylation); type: biochemical
T2 construct: purchased CarnaBiosciences 04-146
T2 sequence (Q13164 55-347 limits assumed): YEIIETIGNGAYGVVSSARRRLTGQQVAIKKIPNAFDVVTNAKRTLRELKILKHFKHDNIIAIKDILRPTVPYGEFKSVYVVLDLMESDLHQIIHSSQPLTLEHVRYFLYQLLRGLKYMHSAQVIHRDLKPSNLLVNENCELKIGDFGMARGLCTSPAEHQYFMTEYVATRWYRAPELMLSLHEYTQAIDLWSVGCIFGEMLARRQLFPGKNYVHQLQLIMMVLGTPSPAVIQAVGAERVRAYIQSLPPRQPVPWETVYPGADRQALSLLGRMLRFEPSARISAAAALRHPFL
Description: as §1
An assay was performed to measure the capacity of each compound to inhibit ERK5 enzymatic activity. Compound potency was evaluated by Time-Resolved Forster Resonance Energy Transfer (FRET system). The activated catalytic domain of protein ERK5 (CarnaBiosciences #04-146) was mixed at 4 nM with varying concentrations of compound and incubated for 30 minutes at room temperature. A mixture of 1 mM ATP and 1 μM biotinylated synthetic peptide was added (Biosyntan GmbH). This synthetic peptide represents amino acids 30-52 of Eukaryotic translation initiation factor 4E-binding protein 1 (see, e.g., the sequence under accession No. NP_004086.1) biotinylated at the N-terminus. After 30 minutes at 37° C., the peptide phosphorylation by ERK5 was measured by addition of FRET reagents consisting of 12.5 μg/ml Streptavidin-XL665, 1 nM Anti-P-4EBP1 antibody and 300 ng/ml Anti-rabbit-K antibody. Following 90 minutes at room temperature fluorescent signals were read on the Pherastar FSX multimod detector from BMG Labtech (Exc° 340 nm, Em1 620 nm, Em2 665 nm). The IC50 values represent the concentration of compound which inhibits the measurable fluorescence signal by 50% as compared to the DMSO only control.

[2] = ERK5 catalytic domain 4 nM, 1 mM ATP, 1 μM biotinylated 4EBP1 peptide, 30 min at 37° C., mean where repeated, read-out: Cell-free assay (IC50 in nM)

| Structure (SMILES) | IC50 (ERK5) [nM] | IC50 [1, 2] [nM] | IC50 ([1]; footnote: repeat measurement, mean average value, read-out: Cell-free assay IC50, repeat measurement) [nM] |
| --- | --- | --- | --- |
| Nc1cc(OC(F)(F)F)ccc1C(=O)N1CCC(n2c(=O)[nH]c3ncc(OC4CCOC4)cc32)CC1 (racemic) [Example 55, (rac)-1-[1-[2-amino-4-(trifluoromethoxy)benzoyl]-4-piperidyl]-6-[tetrahydrofuran-3-yl]oxy-3H-imidazo[4,5-b]pyridin-2-one] | 83 | 87 | – |
| O=C(c1ccc(OC(F)(F)F)cc1)N1CCC(n2c(=O)[nH]c3ncc(OC4CCOC4)cc32)CC1 (racemic) [Example 56, (rac)-6-tetrahydrofuran-3-yloxy-1-[1-[4-(trifluoromethoxy)benzoyl]-4-piperidyl]-3H-imidazo[4,5-b]pyridin-2-one] | 96 | 430 | – |
| Nc1cc(OC(F)(F)F)ccc1C(=O)N1CCC(n2c(=O)[nH]c3ncc(OC4CCOC4)cc32)CC1 (single isomer, unassigned; isomer 1) [Example 43, 1-[1-[2-amino-4-(trifluoromethoxy)benzoyl]-4-piperidyl]-6-[tetrahydrofuran-3-yl]oxy-3H-imidazo[4,5-b]pyridin-2-one, Isomer 1] | 74 | 150 | – |
| CN1CCC(Oc2cnc3[nH]c(=O)n(C4CCN(C(=O)c5ccc(OC(F)(F)F)cc5N)CC4)c3c2)C1 (single isomer, unassigned; isomer 1) [Example 47, 1-[1-[2-amino-4-(trifluoromethoxy)benzoyl]-4-piperidyl]-6-[1-methylpyrrolidin-3-yl]oxy-3H-imidazo[4,5-b]pyridin-2-one, Isomer 1] | 273 | 239 | – |
| Nc1cc(OC(F)(F)F)ccc1C(=O)N1CCC(n2c(=O)[nH]c3ncc(OC4CCOC4)cc32)CC1 (single isomer, unassigned; isomer 2) [Example 44, 1-[1-[2-amino-4-(trifluoromethoxy)benzoyl]-4-piperidyl]-6-[tetrahydrofuran-3-yl]oxy-3H-imidazo[4,5-b]pyridin-2-one, Isomer 2] | 169 | 310 | – |
| CN1CCC(Oc2cnc3[nH]c(=O)n(C4CCN(C(=O)c5ccc(OC(F)(F)F)cc5N)CC4)c3c2)C1 (single isomer, unassigned; isomer 2) [Example 48, 1-[1-[2-amino-4-(trifluoromethoxy)benzoyl]-4-piperidyl]-6-[1-methylpyrrolidin-3-yl]oxy-3H-imidazo[4,5-b]pyridin-2-one, Isomer 2] | 117 | 78 | – |
| Nc1cc(OC(F)(F)F)ccc1C(=O)N1CCC(n2c(=O)[nH]c3ncc(OC4CCOCC4)cc32)CC1 [Example 1, 1-[1-[2-amino-4-(trifluoromethoxy)benzoyl]-4-piperidyl]-6-tetrahydropyran-4-yloxy-3H-imidazo[4,5-b]pyridin-2-one] | 48 | 29 | – |
| Nc1cc(OC(F)(F)F)ccc1C(=O)N1CCC(n2c(=O)[nH]c3ncc(C4CCOCC4)cc32)CC1 [Example 2, 1-[1-[2-amino-4-(trifluoromethoxy)benzoyl]-4-piperidyl]-6-tetrahydropyran-4-yl-3H-imidazo[4,5-b]pyridin-2-one] | 68 | 48 | – |
| Nc1cc(OC(F)(F)F)ccc1C(=O)N1CCC(n2c(=O)[nH]c3ncc(N4CCOCC4)cc32)CC1 [Example 3, 1-[1-[2-amino-4-(trifluoromethoxy)benzoyl]-4-piperidyl]-6-N-morpholino-3H-imidazo[4,5-b]pyridin-2-one] | 72 | 77 | – |
| O=C(c1ccc(OC(F)(F)F)cc1)N1CCC(n2c(=O)[nH]c3ncc(OC4CCOCC4)cc32)CC1 [Example 4, 6-tetrahydropyran-4-yloxy-1-[1-[4-(trifluoromethoxy)benzoyl]-4-piperidyl]-3H-imidazo[4,5-b]pyridin-2-one] | 132 | 135 | – |
| CN1CCC(Oc2cnc3[nH]c(=O)n(C4CCN(C(=O)c5ccc(OC(F)(F)F)cc5)CC4)c3c2)CC1 [Example 5, 6-[(1-methyl-4-piperidyl)oxy]-1-[1-[4-(trifluoromethoxy)benzoyl]-4-piperidyl]-3H-imidazo[4,5-b]pyridin-2-one] | 206 | 150 | – |
| CN1CCC(Oc2cnc3[nH]c(=O)n(C4CCN(C(=O)c5ccc(OC(F)(F)F)cc5N)CC4)c3c2)CC1 [Example 7, 1-[1-[2-amino-4-(trifluoromethoxy)benzoyl]-4-piperidyl]-6-[(1-methyl-4-piperidyl)oxy]-3H-imidazo[4,5-b]pyridin-2-one] | 248 | 63 | – |
| O=C(c1ccc(OC(F)(F)F)cc1)N1CCC(n2c(=O)[nH]c3ncc(N4CCOCC4)cc32)CC1 [Example 8, 6-N-morpholino-1-[1-[4-(trifluoromethoxy)benzoyl]-4-piperidyl]-3H-imidazo[4,5-b]pyridin-2-one] | 279 | 505 | – |
| Nc1cc(OC(F)(F)F)ccc1C(=O)N1CCC(n2c(=O)[nH]c3ncc(N4CCO[C@H](CO)C4)cc32)CC1 [Example 10, 1-[1-[2-amino-4-(trifluoromethoxy)benzoyl]-4-piperidyl]-6-[(2S)-2-(hydroxymethyl)morpholin-4-yl]-3H-imidazo[4,5-b]pyridin-2-one] | 870 | 103 | – |
| O=C(c1ccc(OC(F)(F)F)cc1)N1CCC(n2c(=O)[nH]c3ncc(N4CCO[C@@H](CO)C4)cc32)CC1 [Example 11, 6-[(2R)-2-(hydroxymethyl)morpholin-4-yl]-1-[1-[4-(trifluoromethoxy)benzoyl]-4-piperidyl]-3H-imidazo[4,5-b]pyridin-2-one] | 1830 | 1050 | – |
| O=C(c1ccc(OC(F)(F)F)cc1)N1CCC(n2c(=O)[nH]c3ncc(N4CCO[C@H](CO)C4)cc32)CC1 [Example 12, 6-[(2S)-2-(Hydroxymethyl)morpholin-4-yl]-1-[1-[4-(trifluoromethoxy)benzoyl]-4-piperidyl]-3H-imidazo[4,5-b]pyridin-2-one] | 1860 | 442 | – |
| Nc1cc(OC(F)(F)F)ccc1C(=O)N1CCC(n2c(=O)[nH]c3ncc(N4CCO[C@@H](CO)C4)cc32)CC1 [Example 13, 1-[1-[2-Amino-4-(trifluoromethoxy)benzoyl]-4-piperidyl]-6-[(2R)-2-(hydroxymethyl)morpholin-4-yl]-3H-imidazo[4,5-b]pyridin-2-one] | 1330 | 225 | – |
| Nc1cc(S(F)(F)(F)(F)F)ccc1C(=O)N1CCC(n2c(=O)[nH]c3ncc(C4CCOCC4)cc32)CC1 [Example 14, 1-[1-[2-Amino-4-(pentafluoro-λ^6-sulfanyl)benzoyl]-4-piperidyl]-6-tetrahydropyran-4-yl-3H-imidazo[4,5-b]pyridin-2-one] | 118 | 122 | – |
| O=C(c1ccc(OC(F)(F)F)cc1)N1CCC(n2c(=O)[nH]c3ncc(C4CCCC4)cc32)CC1 [Example 17, 6-Cyclopentyl-1-[1-[4-(trifluoromethoxy)benzoyl]-4-piperidyl]-3H-imidazo[4,5-b]pyridin-2-one] | 178 | 198 | – |
| O=C(c1ccc(OC(F)(F)F)cc1O)N1CCC(n2c(=O)[nH]c3ncc(C4CCOCC4)cc32)CC1 [Example 18, 1-[1-[2-Hydroxy-4-(trifluoromethoxy)benzoyl]-4-piperidyl]-6-tetrahydropyran-4-yl-3H-imidazo[4,5-b]pyridin-2-one] | 90 | 54 | 82 |
